According to ChEMBL document CHEMBL1149781, “New glycosidic derivatives of histidine-containing dipeptides with antioxidant properties and resistant to carnosinase activity” (Eur J Med Chem, 2008):

Assays:
Type in all cases: functional
[1] = Antioxidant activity against copper-induced lipid peroxidation in human LDL assessed as inhibition of malondialdehyde formation at 50 uM relative to control; design: scale not given: the % may be the effect or the level left
[2] = Antioxidant activity against copper-induced lipid peroxidation in human LDL assessed as inhibition of malondialdehyde formation at 100 uM relative to control; design: scale not given: the % may be the effect or the level left
[3] = Antioxidant activity against copper-induced lipid peroxidation in human LDL assessed as inhibition of malondialdehyde formation at 20 uM relative to control; design: scale not given: the % may be the effect or the level left
[4] = Antioxidant activity against copper-induced lipid peroxidation in human LDL assessed as inhibition of malondialdehyde formation at 200 uM relative to control; design: scale not given: the % may be the effect or the level left
[5] = Antioxidant activity against copper-induced lipid peroxidation in human LDL assessed as inhibition of malondialdehyde formation at 2 uM relative to control; design: scale not given: the % may be the effect or the level left
[6] = Antioxidant activity against copper-induced lipid peroxidation in human LDL assessed as inhibition of malondialdehyde formation at 10 uM relative to control; design: scale not given: the % may be the effect or the level left
[7] = Antioxidant activity against copper-induced lipid peroxidation in human LDL assessed as inhibition of malondialdehyde formation at 5 uM relative to control; design: scale not given: the % may be the effect or the level left
[8] = Antioxidant activity against copper-induced lipid peroxidation in human LDL assessed as inhibition of malondialdehyde formation

| SMILES | Activity [1] [%] | Activity [2] [%] | Activity [3] [%] | Activity [4] [%] | Activity [5] [%] | Activity [6] [%] | Activity [7] [%] | IC50 [8] [µM] |
| --- | --- | --- | --- | --- | --- | --- | --- | --- |
| OC[C@H]1O[C@@H]2O[C@H]3[C@H](O)[C@@H](O)[C@@H](O[C@H]4[C@H](O)[C@@H](O)[C@@H](O[C@H]5[C@H](O)[C@@H](O)[C@@H](O[C@H]6[C@H](O)[C@@H](O)[C@@H](O[C@H]7[C@H](O)[C@@H](O)[C@@H](O[C@H]8[C@H](O)[C@@H](O)[C@@H](O[C@H]1[C@H](O)[C@H]2O)O[C@@H]8CO)O[C@@H]7CO)O[C@@H]6CO)O[C@@H]5CO)O[C@@H]4CO)O[C@@H]3CO | 3.87 | 6.94 | 1.26 | 10.7 | 0.11 | 0.65 | 0.38 | – |
| Cn1cncc1C[C@H](NC(=O)CCN)C(=O)O | 8.55 | 12.2 | 2.14 | 18.7 | 0.23 | 1.05 | 0.51 | – |
| Cn1cncc1CC(NC(=O)CCNC[C@H]1O[C@@H]2O[C@H]3[C@H](O)[C@@H](O)[C@@H](O[C@H]4[C@H](O)[C@@H](O)[C@@H](O[C@H]5[C@H](O)[C@@H](O)[C@@H](O[C@H]6[C@H](O)[C@@H](O)[C@@H](O[C@H]7[C@H](O)[C@@H](O)[C@@H](O[C@H]8[C@H](O)[C@@H](O)[C@@H](O[C@H]1[C@H](O)[C@H]2O)O[C@@H]8CO)O[C@@H]7CO)O[C@@H]6CO)O[C@@H]5CO)O[C@@H]4CO)O[C@@H]3CO)C(=O)O (some centres not stated) | – | – | – | – | – | – | – | 88.7 |
| Cn1cncc1CC(NC(=O)CCN[C@@H]1[C@@H](O)[C@H]2O[C@H]3[C@H](O)[C@@H](O)[C@@H](O[C@H]4[C@H](O)[C@@H](O)[C@@H](O[C@H]5[C@H](O)[C@@H](O)[C@@H](O[C@H]6[C@H](O)[C@@H](O)[C@@H](O[C@H]7[C@H](O)[C@@H](O)[C@@H](O[C@H]8[C@H](O)[C@@H](O)[C@@H](O[C@@H]1[C@@H](CO)O2)O[C@@H]8CO)O[C@@H]7CO)O[C@@H]6CO)O[C@@H]5CO)O[C@@H]4CO)O[C@@H]3CO)C(=O)O (some centres not stated) | – | – | – | – | – | – | – | 41.6 |
| O=C(CCN[C@@H]1[C@@H](O)[C@H]2O[C@H]3[C@H](O)[C@@H](O)[C@@H](O[C@H]4[C@H](O)[C@@H](O)[C@@H](O[C@H]5[C@H](O)[C@@H](O)[C@@H](O[C@H]6[C@H](O)[C@@H](O)[C@@H](O[C@H]7[C@H](O)[C@@H](O)[C@@H](O[C@H]8[C@H](O)[C@@H](O)[C@@H](O[C@@H]1[C@@H](CO)O2)O[C@@H]8CO)O[C@@H]7CO)O[C@@H]6CO)O[C@@H]5CO)O[C@@H]4CO)O[C@@H]3CO)NC(Cc1cnc[nH]1)C(=O)O (some centres not stated) | – | – | – | – | – | – | – | 23.4 |
